ChEMBL document CHEMBL1287791, “In silico identification and biochemical evaluation of novel inhibitors of NRH:quinone oxidoreductase 2 (NQO2)” (Bioorg Med Chem Lett, 2010)
Calls of active or inactive are those of the source. The rule behind the calls is not given here.

Legend:
[1] = target: T1, Ribosyldihydronicotinamide dehydrogenase [quinone] (Homo sapiens, UniProt P16083); experiment: Inhibition of human recombinant NQO2
T1 sequence (P16083 whole entry): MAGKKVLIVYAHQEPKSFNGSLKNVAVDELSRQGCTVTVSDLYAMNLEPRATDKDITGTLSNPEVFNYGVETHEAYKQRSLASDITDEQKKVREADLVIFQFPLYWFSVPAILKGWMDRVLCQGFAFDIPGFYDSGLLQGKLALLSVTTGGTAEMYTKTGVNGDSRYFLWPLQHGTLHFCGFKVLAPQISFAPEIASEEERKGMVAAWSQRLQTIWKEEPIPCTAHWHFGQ

[2] = target: T2, Ribosyldihydronicotinamide dehydrogenase [quinone] (Homo sapiens) (UniProt P16083); experiment: Inhibition of human recombinant NQO2 at 100 uM
T2 sequence (whole entry): T1 sequence (P16083 whole entry)

[3] = target: NAD(P)H dehydrogenase [quinone] 1 (Homo sapiens, UniProt P15559); experiment: Inhibition of human recombinant NQO1
NAD(P)H dehydrogenase [quinone] 1, sequence (P15559 whole entry): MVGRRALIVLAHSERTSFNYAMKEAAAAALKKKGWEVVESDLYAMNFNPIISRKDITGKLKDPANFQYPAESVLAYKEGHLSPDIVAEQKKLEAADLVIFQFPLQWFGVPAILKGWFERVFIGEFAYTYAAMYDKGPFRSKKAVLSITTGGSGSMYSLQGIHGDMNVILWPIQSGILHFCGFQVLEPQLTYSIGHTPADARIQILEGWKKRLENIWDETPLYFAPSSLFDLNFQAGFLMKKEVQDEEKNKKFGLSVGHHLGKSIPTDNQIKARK

| IC50 [1] | inhibition [2] | IC50 [3] | Compound |
| --- | --- | --- | --- |
| 9.6 µM | inactive |  | O=[N+]([O-])c1ccc(/C=C/c2cc(-c3ccccc3)nc3ccc4ccccc4c23)cc1 |
| 6 µM |  | 1.1 µM | c1ccc2sc(-c3c4ccccc4cc4ccc5ccccc5c34)cc2c1 |
| 5 µM | inactive |  | CCn1c2ccccc2c2cc(N)c(/N=N/c3ccc([N+](=O)[O-])cc3)cc21 |
| 2.1 µM | inactive |  | Cc1cc2c(ccc3c2ccc[n+]3C)[nH]1 |
| 1.8 µM | inactive |  | N=C(N)c1ccc(/N=N/c2cc(/N=N/c3ccccc3)ccc2O)cc1 |
|  | inactive |  | c1ccc(/N=C2\SC(=NNc3ccccc3)S\C2=N/c2ccccc2)cc1 |
| 3.5 µM | inactive |  | CCN(CC)Cc1cc(Nc2c3ccccc3nc3c4ccccc4n(C)c23)ccc1O |
| 2.9 µM | inactive |  | c1ccc2c3ccn4ccc5c6ccccc6[nH]c5c4c-3nc2c1 |
|  | inactive |  | CC(=O)CCNc1ccc(-c2cc(-c3ccc(N(C)C)cc3)nc3ccc4ccccc4c23)cc1 |
| 9.7 µM | inactive |  | C(=C\Nc1ccc(-c2ccccc2)cc1)/C=N/c1ccc(-c2ccccc2)cc1 |
| 20 µM |  | 40 µM | COc1ccc(/C(C#N)=C\c2cc(OC)c(OC)c(OC)c2)cc1 |
|  | inactive |  | C(=N\c1ccc(-c2cc(-c3ccccc3)nc3ccc4ccccc4c23)cc1)/c1ccccc1 |
| 1.9 µM | inactive |  | Cc1cc(NCCCCCCNc2cc(C)nc3ccc(N)cc23)c2cc(N)ccc2n1 |
|  | inactive |  | CCN(CC)CCNC(=O)c1c2c(nc3ccccc13)CCCC2 |
| 6 µM | inactive |  | N=C(N)c1ccc(/N=N/c2c(O)c(C(=O)Nc3ccccc3)cc3ccccc23)cc1 |
| 5.1 µM | inactive |  | c1ccc2c(-c3ccsc3)c3c(ccc4ccccc43)cc2c1 |
|  | inactive |  | Fc1ccc2c(c1)SC1Oc3ccccc3-c3c1c-2nn3-c1ccccc1 (stereo not drawn) |
| 2.7 µM | inactive |  | COc1cc2cc(-c3cc(OC)c(OC)c(OC)c3)c3c(c2cc1OC)CNC3 |
|  | inactive |  | Oc1ccc2ccccc2c1/N=N/c1ccc(F)cc1 |
| 3.9 µM |  | 3 µM | Oc1ccccc1C(=NNc1ccccc1)c1ccccc1O |
|  | inactive |  | Cc1ccc(C(=N)c2ccccc2Cc2cccc3ccccc23)c2ccccc12 |

| IC50 [1] | inhibition [2] | IC50 [3] | Compound |
| --- | --- | --- | --- |
| 6.2 µM | inactive |  | Cn1cc/c(=N\N=c2/ccn(C)c3ccccc23)c2ccccc21 |
| 4.9 µM |  |  | Cc1nc(-n2nc(-c3ccccc3)cc2-c2ccccc2)sc1C(=O)/C=C/c1ccc(Cl)c(Cl)c1 |
|  | inactive |  | Clc1ccc2nc3c(c(-c4ccccc4)nn3-c3ccccc3)c(-c3ccccc3)c2c1 |
|  | inactive |  | Cc1ccc(-n2cc(-c3ccc(Cl)cc3)c3c2N=CN2N=C(c4cccs4)NC32)cc1 (stereo not drawn) |
|  | inactive |  | O=[N+]([O-])c1ccc(N/N=C/c2c(Cl)n(-c3ccccc3)c3ccccc23)c([N+](=O)[O-])c1 |
| 5.5 µM | inactive |  | Cn1c2ccccc2c2c3ccc[n+](C)c3ccc21 |
|  | inactive |  | O=C(C(=O)c1cc(-c2ccccc2)nc2ccc3ccccc3c12)c1ccccc1 |
|  | inactive |  | CN(CCc1ccccn1)c1ccc2c(c1)Cc1ccccc1-2 |
| 5.8 µM |  |  | Cc1nc(-n2nc(-c3ccccc3)cc2-c2ccccc2)sc1C(=O)/C=C/c1ccccc1 |
|  | inactive |  | c1ccc2cc(-c3cc(-c4cc(-c5ccc6ccccc6c5)on4)no3)ccc2c1 |
| 1.5 µM | inactive |  | CCN(CC)CCCC(C)Nc1ccnc2cc(Cl)ccc12 (stereo not drawn) [CHLOROQUINE] |
| 5.3 µM |  |  | Cc1nc(-n2nc(-c3ccccc3)cc2-c2ccccc2)sc1C(=O)/C=C/c1ccc(Cl)cc1 |
| 3.8 µM |  |  | CC(/C=C/C(=O)c1sc(-n2nc(-c3ccccc3)cc2-c2ccccc2)nc1C)=C\c1ccccc1 |
|  | inactive |  | N/N=c1\c2ccccc2c2ccc3c4ccccc4/c(=N\N)c3c12 |
|  | inactive |  | Cc1ccc2c(c1)-c1c3c(nn1-c1ccccc1)-c1ccccc1SC3O2 (stereo not drawn) |
|  |  | 10 µM | Oc1cc(O)cc(-c2c(O)cc(O)cc2O)c1 |
| 1.8 µM | inactive |  | C(=C\c1c[nH]c2ccccc12)/c1nccc2ccccc12 |
| 6.5 µM |  |  | Cc1nc(-n2nc(-c3ccccc3)cc2-c2ccccc2)sc1C(=O)/C=C/c1cccc([N+](=O)[O-])c1 |
| 1.7 µM | inactive |  | CN(C)c1ccc(/C=c2\c3ccccc3n3c2cc(-c2ccccc2)[n+]3C)cc1 |
|  | inactive |  | C/C(=N\NC(=O)c1ccncc1)c1sc(-n2nc(-c3ccccc3)cc2-c2ccccc2)nc1C |
|  | inactive |  | C#CCN(Cc1ccc2nc(-c3ccccc3)c(Cl)nc2c1)c1cc(OC)c(OC)c(OC)c1 |

| IC50 [1] | inhibition [2] | IC50 [3] | Compound |
| --- | --- | --- | --- |
|  | inactive |  | Clc1ccc(-c2nc3ccc4ccccc4c3c3c2CCCC3)cc1 |
|  | inactive |  | Cc1ccc(-c2cn3c(nc4ccccc43)c(-c3ccccc3)n2)cc1 |
| 7.5 µM | inactive |  | COc1cc(NC(C)CCCN)c2ncccc2c1 (stereo not drawn) [PRIMAQUINE] |
| 2.1 µM | inactive |  | Cc1c2ccnc(-c3ccccc3)c2cc2c1[nH]c1ccccc12 |
| 3.3 µM | inactive |  | Oc1cc(O)c2ccccc2c1 |
|  | inactive |  | C1=c2ccccc2=C2C(=C(c3ccccc3)C(c3ccccc3)=NN2c2ccccc2)S1 |
|  | inactive |  | c1ccc(-c2sc(-c3ccccc3)c3c2C2CCC3C2)cc1 |
| 3.2 µM |  |  | Cc1ccc(/C=C/C(=O)c2sc(-n3nc(-c4ccccc4)cc3-c3ccccc3)nc2C)cc1 |
| 6 µM |  |  | Cc1nc(-n2nc(-c3ccccc3)cc2-c2ccccc2)sc1C(=O)/C=C/c1ccc([N+](=O)[O-])cc1 |
| 2 µM | inactive |  | COc1cc2cc(-c3cc(OC)c(OC)c(OC)c3)c3c(c2cc1OC)CNC3=O |
|  | inactive |  | O=C(NCCc1ccccc1)c1ccc2ccccc2n1 |
| 2.7 µM | inactive |  | CCN1/C(=C/c2ccc3ccccc3[n+]2CC)C=Cc2ccccc21 |
| 1.4 µM | inactive |  | N=C(N)c1ccc(/N=N/c2cc(/C=C/c3ccccc3)ccc2O)cc1 |
| 5 µM | inactive |  | CN(C)c1ccc(/C=c2\c3cc([N+](=O)[O-])ccc3n3c2cc(-c2ccccc2)[n+]3C)cc1 |
|  | inactive |  | CN(C)c1ccc(NN=C2SC(=N\c3ccccc3)/C(=N/c3ccccc3)S2)cc1 |
|  | inactive |  | Oc1ccc(-c2ccc(O)cc2O)c(O)c1 |
|  |  | 0.39 µM | Fc1ccccc1C1CC(c2ccc3ccccc3c2)=Nc2ccccc2S1 (stereo not drawn) |
|  | inactive |  | Clc1ccc(-c2cn3c(nc4ccccc43)c(-c3ccccc3)n2)cc1 |
| 22 µM | inactive |  | COc1ccc(/C(Cl)=C(/C=O)c2cc(OC)c(OC)c(OC)c2)cc1OC |
| 2 µM | inactive |  | CN1CC(c2ccccc2)=CC2=C1C=CC(=N)/C2=N\N |

| Compound | IC50 [1] | inhibition [2] | IC50 [3] |
| --- | --- | --- | --- |
| C(=N\NC1=NCCN1)/c1c2ccccc2c(/C=N/NC2=NCCN2)c2ccccc12 |  | inactive |  |
| COc1cc(/C=C/c2ccc(OC)c(O)c2)cc(OC)c1 | 15 µM |  |  |
| O=[N+]([O-])c1ccc(-n2nc3ccc4c(no[n+]4[O-])c3n2)cc1 |  | inactive |  |
